Experimental data taken from patent US20050090505A1, “Methods of reducing risk of infection from pathogens” (priority 2003, published 2005).
Structures can show the parent of a compound that is named as a salt.

Tests used:
[1] = target: T1, airway epithelial sodium currents (sodium channel) (UniProt A0A8I3MKE6+A0A8I3Q679+Q95165); assay: Sodium channel blocking activity: inhibition of short circuit current (ISC) in airway epithelial monolayers mounted in Ussing chambers; type: cell-based, human, dog, sheep or rodent; settings: for Fold Amiloride** (PSA 4022 = 100): relative potency for PSA 4022 = 100 using EC50 from PSA 4022 in same run; for EC50: Selected Alaphatic Pyrazinoylguanidines (Formula II), mean ± spread, read-out: EC50
T1 sequence (A0A8I3MKE6 1-646): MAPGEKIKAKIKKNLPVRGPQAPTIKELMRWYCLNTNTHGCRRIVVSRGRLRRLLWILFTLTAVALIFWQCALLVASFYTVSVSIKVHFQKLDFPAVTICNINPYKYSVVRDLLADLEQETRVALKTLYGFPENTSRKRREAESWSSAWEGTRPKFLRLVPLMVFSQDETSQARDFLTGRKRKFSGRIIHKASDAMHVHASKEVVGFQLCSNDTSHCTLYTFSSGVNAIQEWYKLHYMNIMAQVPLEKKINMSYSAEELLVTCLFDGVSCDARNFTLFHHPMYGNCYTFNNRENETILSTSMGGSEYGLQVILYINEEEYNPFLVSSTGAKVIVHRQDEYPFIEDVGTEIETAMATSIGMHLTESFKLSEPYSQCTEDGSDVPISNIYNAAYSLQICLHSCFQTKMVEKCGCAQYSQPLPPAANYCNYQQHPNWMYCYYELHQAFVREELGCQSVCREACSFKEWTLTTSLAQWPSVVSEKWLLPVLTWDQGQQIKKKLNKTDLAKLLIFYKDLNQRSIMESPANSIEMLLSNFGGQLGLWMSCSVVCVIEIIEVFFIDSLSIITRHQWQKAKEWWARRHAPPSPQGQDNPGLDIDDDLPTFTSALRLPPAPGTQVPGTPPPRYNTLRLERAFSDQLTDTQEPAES
T1 sequence (A0A8I3Q679 1-649): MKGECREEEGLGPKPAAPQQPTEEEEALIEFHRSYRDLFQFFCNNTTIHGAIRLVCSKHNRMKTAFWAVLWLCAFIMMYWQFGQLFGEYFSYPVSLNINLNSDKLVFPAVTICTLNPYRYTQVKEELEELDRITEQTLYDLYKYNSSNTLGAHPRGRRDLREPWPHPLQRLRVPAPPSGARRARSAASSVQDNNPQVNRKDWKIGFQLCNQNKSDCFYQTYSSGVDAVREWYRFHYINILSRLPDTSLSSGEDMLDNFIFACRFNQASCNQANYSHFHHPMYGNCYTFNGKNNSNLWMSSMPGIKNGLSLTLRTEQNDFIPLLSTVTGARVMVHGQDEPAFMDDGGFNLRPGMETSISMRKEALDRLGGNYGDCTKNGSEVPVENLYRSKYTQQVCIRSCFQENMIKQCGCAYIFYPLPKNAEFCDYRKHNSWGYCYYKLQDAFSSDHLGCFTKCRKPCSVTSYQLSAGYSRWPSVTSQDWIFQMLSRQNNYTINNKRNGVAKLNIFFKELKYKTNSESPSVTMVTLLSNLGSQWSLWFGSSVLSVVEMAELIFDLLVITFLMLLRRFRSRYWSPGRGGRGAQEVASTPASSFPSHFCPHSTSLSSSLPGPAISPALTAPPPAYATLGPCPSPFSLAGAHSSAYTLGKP
T1 sequence (Q95165 1-641): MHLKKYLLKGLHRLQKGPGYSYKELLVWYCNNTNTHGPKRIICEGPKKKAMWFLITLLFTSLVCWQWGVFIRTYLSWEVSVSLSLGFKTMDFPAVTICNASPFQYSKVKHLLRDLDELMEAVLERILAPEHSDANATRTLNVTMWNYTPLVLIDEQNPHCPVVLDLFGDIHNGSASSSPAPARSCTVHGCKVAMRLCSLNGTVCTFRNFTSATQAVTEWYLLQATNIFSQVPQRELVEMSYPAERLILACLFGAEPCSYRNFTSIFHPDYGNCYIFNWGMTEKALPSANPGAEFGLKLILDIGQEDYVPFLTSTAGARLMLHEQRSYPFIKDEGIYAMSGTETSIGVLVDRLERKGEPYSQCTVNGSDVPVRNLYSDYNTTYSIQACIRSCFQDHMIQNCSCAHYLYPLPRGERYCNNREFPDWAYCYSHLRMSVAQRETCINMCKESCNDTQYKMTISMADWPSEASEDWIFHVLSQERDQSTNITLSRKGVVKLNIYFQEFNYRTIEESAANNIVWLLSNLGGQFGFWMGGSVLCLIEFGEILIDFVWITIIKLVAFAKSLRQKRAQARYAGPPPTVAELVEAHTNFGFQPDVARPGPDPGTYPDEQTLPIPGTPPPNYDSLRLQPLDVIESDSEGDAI
Method: In Vitro Measure of Sodium Channel Blocking Activity and Reversibility
One assay used to assess mechanism of action and/or potency of the compounds of the present invention involves the determination of lumenal drug inhibition of airway epithelial sodium currents measured under short circuit current (ISC) using airway epithelial monolayers mounted in Ussing chambers. Cells obtained from freshly excised human, dog, sheep or rodent airways are seeded onto porous 0.4 micron Snapwell™ Inserts (CoStar), cultured at air-liquid interface (ALI) conditions in hormonally defined media, and assayed for sodium transport activity (ISC) while bathed in Krebs Bicarbonate Ringer (KBR) in Using chambers. All test drug additions are to the lumenal bath with half-log dose addition protocols (from 1×10^−11 M to 3×10^−5 M), and the cumulative change in ISC (inhibition) recorded. All drugs are prepared in dimethyl sulfoxide as stock solutions at a concentration of 1×10^−2 M and stored at −20° C. Eight preparations are typically run in parallel; two preparations per run incorporate amiloride and/or benzamil as positive controls. After the maximal concentration (5×10^−5 M) is administered, the lumenal bath is exchanged three times with fresh drug-free KBR solution, and the resultant ISC measured after each wash for approximately 5 minutes in duration. Reversibility is defined as the percent return to the baseline value for sodium current after the third wash. All data from the voltage clamps are collected via a computer interface and analyzed off-line.
Dose-effect relationships for all compounds are considered and analyzed by the Prism 3.0 program. IC50 values, maximal effective concentrations, and reversibility are calculated and compared to amiloride and benzamil as positive controls.

Question: For `N=C(N)NCCCCCCCCCCNC(=N)NC(=O)c1nc(Cl)c(N)nc1N` (as salt: hydrochloride) [compound 23608, N-{10-[N′-(3,5-diamino-6-chloropyrazine-2-carbonyl)guanidino]-decyl}guanidine dihydrochloride], which melting point is on record?
Answer: 156 to 158 °C

Question: Which melting point does the source give for `N=C(NCCCCCCCCCCCCN)NC(=O)c1nc(Cl)c(N)nc1N` (as salt: hydrochloride) [compound 23609, N-(12-aminododecyl)-N′-(3,5-diamino-6-chloropyrazine-2-carbonyl)-guanidine dihydrochloride] here?
Answer: 235 to 237 °C

Question: With `N=C(NCCCCCCCCCCCN)NC(=O)c1nc(Cl)c(N)nc1N` (as salt: hydrochloride) [compound 23682, N-(11-aminoundecyl)-N′-(3,5-diamino-6-chloropyrazine-2-carbonyl)guanidine dihydrochloride] as the compound, how does the melting point read?
Answer: 220 to 222 °C

Question: Which melting point does the source give for `N=C(N)NCCCCCCCCCCCCNC(=N)NC(=O)c1nc(Cl)c(N)nc1N` (as salt: hydrochloride) [compound 23683, N-{12-[N′-(3,5-diamino-6-chloropyrazine-2-carbonyl)guanidino]dodecyl)guanidine dihydrochloride] here?
Answer: 145 to 147 °C

Question: For `N=C(N)NCCCCCCCCCCCNC(=N)NC(=O)c1nc(Cl)c(N)nc1N` (as salt: hydrochloride) [compound 23991, N-{11-[N′-(3,5-diamino-6-chloropyrazine-2-carbonyl)guanidino]-undecyl}guanidine dihydrochloride], which melting point is on record?
Answer: 151 to 153 °C

Question: For `N=C(NCCCCC1CCN(CCO)CC1)NC(=O)c1nc(Cl)c(N)nc1N` (as salt: hydrochloride) [compound 25193, N-(3,5-diamino-6-chloropyrazine-2-carbonyl)-N′-{4-[1-(2-hydroxyethyl)piperidin-4-yl]butyl}guanidine dihydrochloride], which melting point is on record?
Answer: 168 to 170 °C

Question: With `N=C(NCCCCc1ccc(OCC(O)COCC(O)CO)cc1)NC(=O)c1nc(Cl)c(N)nc1N` (centres unmarked) [compound 15143, N-(3,5-diamino-6-chloropyrazine-2-carbonyl)-N′-(4-{4-[3-(2,3-dihydroxypropoxy)-2-hydroxypropoxy]phenyl}butyl)guanidine] as the compound, how does the “Fold Amiloride** (PSA 4022 = 100)” value ([1]; Capped Pyrazinoylguanidines) read?
Answer: 107 ± 11

Question: What about the melting point of the same compound?
Answer: 73 to 82 °C (dec.)

Question: What does the source list for `N#CCOc1ccc(CCCCNC(=N)NC(=O)c2nc(Cl)c(N)nc2N)cc1` [compound 16208, N-[4-(4-cyanomethoxyphenyl)butyl]-N′-(3,5-diamino-6-chloro-pyrazine-2-carbonyl)guanidine]?
Answer: Fold Amiloride** (PSA 4022 = 100) ([1]; Capped Pyrazinoylguanidines): 52 ± 21; melting point: 129 to 132 °C

Question: Which “Fold Amiloride** (PSA 4022 = 100)” value ([1]; Capped Pyrazinoylguanidines) does the source give for `N=C(NCCCCc1ccc(OCC(=O)Nc2ccccc2)cc1)NC(=O)c1nc(Cl)c(N)nc1N` [compound 17482, 2-(4-{4-[N′-(3,5-diamino-6-chloropyrazine-2-carbonyl)guanidino]-butyl}phenoxy)-N-phenylacetamide] here?
Answer: 39 ± 6

Question: And the melting point?
Answer: 168 to 170 °C

Question: Which results are given for `CN(C)C(=S)Oc1ccc(CCCCNC(=N)NC(=O)c2nc(Cl)c(N)nc2N)cc1` [compound 17846, dimethylthiocarbamic acid O-(4-{4-[N′-(3,5-diamino-6-chloropyrazine-2-carbonyl)guanidino]butyl}phenyl) ester]?
Answer: Fold Amiloride** (PSA 4022 = 100) ([1]; Capped Pyrazinoylguanidines): 104 ± 49; melting point: 102 to 105 °C

Question: With `Cl.N=C(NCCCCc1ccc(OCCCc2nnn[nH]2)cc1)NC(=O)c1nc(Cl)c(N)nc1N` [compound 17926, N-(3,5-diamino-6-chloropyrazine-2-carbonyl)-N′-(4-{4-[3-(1H-tetrazol-5-yl)propoxy]phenyl}butyl)guanidine hydrochloride] as the compound, how does the “Fold Amiloride** (PSA 4022 = 100)” value ([1]; Capped Pyrazinoylguanidines) read?
Answer: 29 ± 12

Question: And the melting point?
Answer: 125 to 127 °C (dec.)

Question: With `N=C(NCCCCCCCN)NC(=O)c1nc(Cl)c(N)nc1N` [compound 18705, N-(7-aminoheptyl)-N′-(3,5-diamino-6-chloropyrazine-2-carbonyl)guanidine] as the compound, how does the “Fold Amiloride** (PSA 4022 = 100)” value ([1]; Alaphatic Pyrazinoylguanidines) read?
Answer: 8 ± 2

Question: And the EC50 [1]?
Answer: 99 ± 31 nM

Question: And the melting point?
Answer: 185 to 187 °C (dec.)

Question: With `CC(C)[C@H](NS(=O)(=O)c1ccc(CCCCNC(=N)NC(=O)c2nc(Cl)c(N)nc2N)cc1)C(N)=O.Cl` [compound 19008, (2S)-(4-{4-[N′-(3,5-diamino-6-chloropyrazine-2-carbonyl)guanidino]-butyl}benzenesulfonylamino)-3-methylbutyramide] as the compound, how does the “Fold Amiloride** (PSA 4022 = 100)” value ([1]; Capped Pyrazinoylguanidines) read?
Answer: 54 ± 6

Question: And the melting point?
Answer: 154 to 156 °C (dec.)

Question: With `CC(C)(C)OC(=O)NCCCCCCCCNC(=N)NC(=O)c1nc(Cl)c(N)nc1N` [compound 19156, {8-[N′-(3,5-diamino-6-chloropyrazine-2-carbonyl)guanidino]octyl}carbamic acid tert-butyl ester] as the compound, how does the “Fold Amiloride** (PSA 4022 = 100)” value ([1]; Alaphatic Pyrazinoylguanidines) read?
Answer: 18 ± 2

Question: What about the EC50 [1] of the same compound?
Answer: 46 ± 20 nM

Question: What about the melting point of the same compound?
Answer: 189 to 191 °C

Question: Which results are given for `CC(C)(C)OC(=O)NCCCOCCCNC(=N)NC(=O)c1nc(Cl)c(N)nc1N` [compound 19333]?
Answer: Fold Amiloride** (PSA 4022 = 100) ([1]; Alaphatic Pyrazinoylguanidines): 7 ± 2; EC50 [1]: 81 ± 8 nM; melting point: 62 to 65 °C (dec.)

Question: What does the source list for `CC(C)(C)OC(=O)NCCCCCCCCCNC(=N)NC(=O)c1nc(Cl)c(N)nc1N` [compound 19484, {9-[N′-(3,5-diamino-6-chloropyrazine-2-carbonyl)guanidino]nonyl}-carbamic acid tert-butyl ester]?
Answer: Fold Amiloride** (PSA 4022 = 100) ([1]; Alaphatic Pyrazinoylguanidines): 12; EC50 [1]: 66 nM; melting point: 187 to 189 °C

Question: With `N=C(NCCCCc1ccc(OCCCc2ncc[nH]2)cc1)NC(=O)c1nc(Cl)c(N)nc1N` [compound 23022, N-(3,5-diamino-6-chloropyrazine-2-carbonyl)-N′-(4-{4-[3-(1H-imidazol-2-yl)propoxy]phenyl}butyl)guanidine] as the compound, how does the “Fold Amiloride** (PSA 4022 = 100)” value ([1]; Capped Pyrazinoylguanidines) read?
Answer: 79 ± 15

Question: What about the melting point of the same compound?
Answer: 123 to 126 °C (dec.)

Question: What does the source list for `CC(C)(C)OC(=O)NCCCCCCCCCCCCNC(=N)NC(=O)c1nc(Cl)c(N)nc1N` [compound 23776, {12-[N′-(3,5-diamino-6-chloropyrazine-2-carbonyl)guanidino]dodecyl}-carbamic acid tert-butyl ester]?
Answer: Fold Amiloride** (PSA 4022 = 100) ([1]; Alaphatic Pyrazinoylguanidines): 7; EC50 [1]: 75 nM; melting point: 154 to 156 °C
